Reference: patent US9371275B2, “5-aminolevulinic acid prodrugs for use in photodynamic therapy and photodynamic diagnosis” (Swedish Pharma AB, priority 2008, dated 2016)

Tests used:
human living cells = experiment: PpIX synthesis in human living cells, spectrofluorometric measurements (fluorescence at 632 nm); type: cell-based
Source text: Using the spectrum of PpIX as reference (FIG. 2), a comparison between PpIX synthesis by the oxime compound according to the invention with that based on the methyl ester of 5ALA currently in clinical use (MetVix), was made on human living cells using spectrofluorometric measurements.
Diamonds=5ALA methyl ester (MetVix); Squares=5ALA oxime 20% w/w in Essex™ cream.

[1] = after application of 5ALA or known derivatives; cited from earlier work
[2] = after intravenous injection; very slow clearance rate from the body; cited from earlier work

NCC(CCC(=O)O)=NO [5-ALA oxime]
production of PpIX (human living cells): capable of producing PpIX
time for which elevated levels of PpIX are retained after application (human living cells; 5ALA oxime 20% w/w in Essex cream, human cells, fluorescence at 632 nm): at least 6 h
concentration of PpIX generated compared with 5ALA methyl ester (MetVix) (human living cells; 3 h after application, 5-ALA oxime 20% (w/w) in Essex cream, human cells): higher concentration of PpIX

NCC(=O)CCC(=O)O [5ALA, 5-aminolevulinic acid]
time after application at which PpIX concentration reaches optimal therapeutic window [1]: 2 to 4 h
time in which PpIX concentration decays to normal background levels [1]: 36 to 48 h

Oc1cccc(-c2c3nc(c(-c4cccc(O)c4)c4ccc([nH]4)c(-c4cccc(O)c4)c4nc(c(-c5cccc(O)c5)c5ccc2[nH]5)CC4)C=C3)c1 [Foscan, temoporfin]
duration of patient hypersensitization [2]: up to 3 weeks
